Measured values reported in patent US4826975A, “Fused cycloaliphatic aminoalcohols” (Maggioni-Winthrop S.P.A., priority 1986, dated 1989).
Blank lines part the entries; values can stand above or below the compound they belong to.

Legend:
toxic adrenaline doses = assay: animal or person; assay type: in vivo, mice; settings: Mus musculus, po; 2 hrs before 14.5 mg/kg 1-adrenaline i.p., mortality after 24 hrs; read-out: DP50 (50% protective dose)
gasping time in mice = assay: anti-hypoxic activity, gasping time after decapitation; assay type: in vivo
Description: The anti-hypoxic activity was determined according to Yasuda et al., Arch. Int. Pharmacodyn. 233, 136, 1978.
Groups of 10 male mice (21-23 g) were treated orally with vehicle (controls) and the invention compounds. After 45 or 90 minutes the animals were decapitated and the gasping time was determined. Table 6 gives the results obtained after administration of some of the invention compounds which display an activity higher than Suloctidil.

[1] = oral acute toxicity in male mice; settings: mouse, in vivo
Description: The oral acute toxicity in male mice of the invention compound is very low. […]; and higher than 2,000 mg/kg for MG 38005, MG 28401, MG 28414 and MG 28427.

platelet aggregation = assay: effect on collagen-stimulated platelet aggregation, ex vivo; assay type: in vivo; settings: Rattus norvegicus, 0.15 mM/kg oral, 1 hr, collagen 2-4 mcg/ml, read-out: % inhibition, Aggregation rate
Description: The effect on platelet aggregation was tested ex vivo according to the method of Minsker, (J. Pharmacol. Exp. Ther. 210, 37, 1979) slightly modified. Groups of 3 rats (280-350 g) were treated orally with vehicle (controls) and compounds (0.15 mM/kg). Blood was collected and pooled from rats of each group 1 hr after treatment and the platelet rich plasma (PRP) was separated by centrifugation.
Platelet aggregation was stimulated with collagen (2-4-mcg/ml) added simultaneously to PRP of control and treated rats. The results were assessed photometrically. Each test was replicated 4 times in groups of 3 animals. Aggregation curves were evaluated in terms of two parameters namely maximum optical density variation (maximum aggregation) and aggregation rate.

DOCA rats = assay type: in vivo, rat; settings: 15 mg/kg po
Description: Changes in blood pressure (mm Hg) before (T=O) and after treatment (2, 4 and 6 hrs) were measured according to the method of tail artery plethysmography reported in "Spontaneously hypertensive rats (SHR), guidelines for breeding, care and use", SHR Conference, 1976, page 11.
The heart rate was also […] (BP Recorder No. 8006 supplied by Basile, Comerio, Italy). The arterial pressure before the treatment was 210±10 mmHg in SHR and 200±10 in DOCA rats.

SHR = assay: anti-hypertensive activity in spontaneously hypertensive (SH) rats, tail artery plethysmography; settings: 15 mg/kg po
Normolipemic rats = assay: hypolipemic activity in normolipemic rats (serum lipids, liver weight); assay type: in vivo, rat
Description: Total cholesterol (CHOL), triglycerides (TG), HDL cholesterol CHOL-HDL) were assayed in serum and the liver was weighed.

[2] = 100 mg/kg p.o., pretreatment 45 min.
[3] = 100 mg/kg p.o., pretreatment 90 min.

Structure (SMILES): COc1cc2c(cc1OC)[C@H](O)[C@H](N1CCC(n3c(=O)[nH]c4cc(Cl)ccc43)CC1)C2 (relative stereo) [MG 38121, cis 2-[4-(2-Oxo-5-chloro-1-benzimidazolinyl)-1-piperidinyl]-5,6-dimethoxy-1-indanol]
ED50 (toxic adrenaline doses): 2.75 mg/kg

Structure (SMILES): COc1cc2c(c(OC)c1OC)CC[C@H](N1CCC(n3c(=O)[nH]c4ccccc43)CC1)[C@H]2O (relative stereo) [MG 38028, trans 2-[4-(2-Oxo-1-benzimidazolidinilyl)-1-piperidinyl]-5,6,7-trimethoxy-1-tetralol]
ED50 (toxic adrenaline doses): 0.73 mg/kg

Structure (SMILES): COc1cc2nc(N3CCN(C(=O)c4ccco4)CC3)nc(N)c2cc1OC [Prazosin, reference compound]
ED50 (toxic adrenaline doses): 0.7 mg/kg

Structure (SMILES): CCCCCCCCN[C@@H]1Cc2c(cc(OC)c(OC)c2OC)[C@H]1O (relative stereo) [MG 38006, trans 2-(n-Octylamino)-4,5,6-trimethoxy-1-indanol]
Gasping time, % diff. from control (gasping time in mice; [2]): +33.2% | LD50 [1]: > 1000 mg/kg

Structure (SMILES): COc1cc2c(cc1OC)[C@@H](O)[C@H](N1CCN(C(=O)C=Cc3ccccc3)CC1)C2 (relative stereo) [MG 28414, trans 2-[4-(1-Oxo-3-phenyl-2-propenyl)-1-piperazinyl]-5,6-dimethoxy-1-indanol]
inhibition at 0.15 mmol/kg (platelet aggregation): 58% | LD50 [1]: > 2000 mg/kg

Structure (SMILES): COc1cc2c(c(OC)c1OC)CC[C@H](N1CCC(n3c(=O)[nH]c4cc(Cl)ccc43)CC1)[C@H]2O (relative stereo) [MG 16456, trans-2-[4(2-Oxo-5-chloro-1-benzimidazolinyl)-1-piperidinyl]-5,6,7-trimethoxy-1-tetralol]
Gasping time, % diff. from control (gasping time in mice; [3]): +36.3% | ED50 (toxic adrenaline doses): 1.85 mg/kg

Structure (SMILES): COc1cc2c(c(OC)c1OC)CC(N1CCC(n3c(=O)[nH]c4ccccc43)CC1)C2=O (stereo not drawn) [MG 38005, 2-[4-(2-oxo-1-benzimidazolinyl)-1-piperidinyl]-4,5,6-trimethoxy-1-indanone]
Max. changes in systolic pressure (DOCA rats): -27 mmHg | Max. changes in systolic pressure (SHR): -42 mmHg | LD50 [1]: > 2000 mg/kg

Liver weight, % difference from control (Normolipemic rats; 0.205 mM/kg po × 8 days): +4% | Liver weight, % difference from control (Normolipemic rats; 0.820 mM/kg po × 4 days): ~ 0%
Structure (SMILES): CC(C)(Sc1cc(C(C)(C)C)c(O)c(C(C)(C)C)c1)Sc1cc(C(C)(C)C)c(O)c(C(C)(C)C)c1 [Probucol, reference compound]
CHOL, % difference from control (Normolipemic rats; 0.205 mM/kg po × 8 days): -25.0% | CHOL-HDL, % difference from control (Normolipemic rats; 0.205 mM/kg po × 8 days): -26% | TG, % difference from control (Normolipemic rats; 0.205 mM/kg po × 8 days): -28.0% | CHOL, % difference from control (Normolipemic rats; 0.820 mM/kg po × 4 days): ~ 0% | CHOL-HDL, % difference from control (Normolipemic rats; 0.820 mM/kg po × 4 days): +18.5% | TG, % difference from control (Normolipemic rats; 0.820 mM/kg po × 4 days): ~ 0% | hypolipemic effect / activity (in words) (Normolipemic rats; oral): moderate and is noted only after prolonged treatment (8 days)

Structure (SMILES): Fc1ccc(C(c2ccc(F)cc2)N2CCN(C/C=C/c3ccccc3)CC2)cc1 [Flunarizine, reference compound]
Gasping time, % diff. from control (gasping time in mice; 50 mg/kg p.o., pretreatment 90 min.): +68.7%

Structure (SMILES): CCCCCCCCNC(C)C(O)c1ccc(SC(C)C)cc1 (stereo not drawn) [Suloctidil, reference compound]
Gasping time, % diff. from control (gasping time in mice; [2]): +27.5% | Gasping time, % diff. from control (gasping time in mice; [3]): +11.7% | inhibition at 0.15 mmol/kg (platelet aggregation): 57.5%

Structure (SMILES): Cc1ccc(N(CC2=NCCN2)c2cccc(O)c2)cc1 [Phentolamine, reference compound]
ED50 (toxic adrenaline doses): 8 mg/kg

Structure (SMILES): CCCCCCCCN[C@H]1Cc2cc(OC)c(OC)cc2[C@@H]1O (relative stereo) [MG 28400, trans 5,6-Dimethoxy-2-(n-octylamino)-1-indanol]
Gasping time, % diff. from control (gasping time in mice; [2]): +53.8% | LD50 [1]: > 500 mg/kg

Structure (SMILES): COc1cc2c(c(OC)c1OC)C[C@H](N1CCC(NC(=O)c3ccccc3)CC1)[C@@H]2O (relative stereo) [MG 38107, cis-2-(4-Benzamido-1-piperidinyl)-4,5,6-trimethoxy-1-indanol]
CHOL, % difference from control (Normolipemic rats; 0.185 mM/kg po × 4 days): -35.7% | CHOL-HDL, % difference from control (Normolipemic rats; 0.185 mM/kg po × 4 days): -8.5% | Liver weight, % difference from control (Normolipemic rats; 0.185 mM/kg po × 4 days): +5.6% | TG, % difference from control (Normolipemic rats; 0.185 mM/kg po × 4 days): -50.9% | CHOL, % difference from control (Normolipemic rats; 0.370 mM/kg po × 4 days): -30.7% | CHOL-HDL, % difference from control (Normolipemic rats; 0.370 mM/kg po × 4 days): -26.3% | Liver weight, % difference from control (Normolipemic rats; 0.370 mM/kg po × 4 days): 0% | TG, % difference from control (Normolipemic rats; 0.370 mM/kg po × 4 days): -58.5% | hypolipemic effect / activity (in words) (Normolipemic rats; oral): higher than with Clofibrate | effect on CHOL and TG (in words) (Normolipemic rats; oral, 4 days): marked decrease both of CHOL and TG | ED50 (toxic adrenaline doses): 2.45 mg/kg | LD50 [1]: > 1000 mg/kg

Structure (SMILES): COc1cc2c(c(OC)c1OC)C[C@@H](N1CCC(n3c(=O)[nH]c4cc(Cl)ccc43)CC1)[C@H]2O (relative stereo) [MG 38119, cis-2-[4-(2-Oxo-5-chloro-1-benzimidazolinyl)-1-piperidinyl]-4,5,6-trimethoxy-1-indanol]
ED50 (toxic adrenaline doses): 4.4 mg/kg

Structure (SMILES): COc1cc2c(cc1OC)[C@@H](O)[C@@H](N1CCC(NC(=O)c3ccccc3)CC1)C2 (relative stereo) [MG 38112, cis 2-(4-Benzamido-1-piperidinyl)-5,6-dimethoxy-1-indanol]
CHOL, % difference from control (Normolipemic rats; 0.185 mM/kg po × 4 days): -45.2% | CHOL-HDL, % difference from control (Normolipemic rats; 0.185 mM/kg po × 4 days): -18.6% | Liver weight, % difference from control (Normolipemic rats; 0.185 mM/kg po × 4 days): 0% | TG, % difference from control (Normolipemic rats; 0.185 mM/kg po × 4 days): -41.8% | CHOL, % difference from control (Normolipemic rats; 0.370 mM/kg po × 4 days): -52.7% | CHOL-HDL, % difference from control (Normolipemic rats; 0.370 mM/kg po × 4 days): -21.4% | Liver weight, % difference from control (Normolipemic rats; 0.370 mM/kg po × 4 days): +3.9% | TG, % difference from control (Normolipemic rats; 0.370 mM/kg po × 4 days): -58.9% | hypolipemic effect / activity (in words) (Normolipemic rats; oral): higher than with Clofibrate | effect on CHOL and TG (in words) (Normolipemic rats; oral, 4 days): marked decrease both of CHOL and TG | ED50 (toxic adrenaline doses): 4.4 mg/kg | Max. changes in systolic pressure (DOCA rats): -19 mmHg | Max. changes in systolic pressure (SHR): -35 mmHg | LD50 [1]: > 1000 mg/kg

Structure (SMILES): COc1cc2c(cc1OC)[C@@H](O)[C@@H](N1CCN(c3ccccc3OC)CC1)C2 (relative stereo) [MG 38100, cis-2-[4-(2-Methoxyphenyl)-1-piperazinyl]-5,6-dimethoxy-1-indanol]
Gasping time, % diff. from control (gasping time in mice; [2]): +95.7% | ED50 (toxic adrenaline doses): 8.5 mg/kg | LD50 [1]: > 500 mg/kg

Structure (SMILES): COc1cc2c(c(OC)c1OC)C[C@H](N1CCC(n3c(=O)[nH]c4cc(Cl)ccc43)CC1)[C@H]2O (relative stereo) [MG 38122, trans-2-[4-(2-Oxo-5-chloro-1-benzimidazolinyl)-1-piperidinyl]-4,5,6-trimethoxy-1-indanol]
Max. changes in systolic pressure (DOCA rats): -28 mmHg | Max. changes in systolic pressure (SHR): -41.9 mmHg

Structure (SMILES): COc1cc2c(cc1OC)C(=O)C(N1CCC(NC(=O)c3ccccc3)CC1)C2 (stereo not drawn) [MG 38128]
CHOL, % difference from control (Normolipemic rats; 0.370 mM/kg po × 4 days): ~ 0% | CHOL-HDL, % difference from control (Normolipemic rats; 0.370 mM/kg po × 4 days): +46.8% | Liver weight, % difference from control (Normolipemic rats; 0.370 mM/kg po × 4 days): +8.6% | TG, % difference from control (Normolipemic rats; 0.370 mM/kg po × 4 days): -38.8% | effect on TG and CHOL-HDL (in words) (Normolipemic rats; oral, 4 days): decrease TG and increase CHOL-HDL

Structure (SMILES): COc1cc2c(cc1OC)[C@H](O)[C@@H](N1CCC(n3c(=O)[nH]c4cc(Cl)ccc43)CC1)C2 (relative stereo) [MG 38131, trans-2-[4-(2-Oxo-5-chloro-1-benzimidazolinyl)-1-piperidinyl]-5,6-dimethoxy-1-indanol]
CHOL, % difference from control (Normolipemic rats; 0.370 mM/kg po × 4 days): ~ 0% | CHOL-HDL, % difference from control (Normolipemic rats; 0.370 mM/kg po × 4 days): +57.2% | Liver weight, % difference from control (Normolipemic rats; 0.370 mM/kg po × 4 days): +6.9% | TG, % difference from control (Normolipemic rats; 0.370 mM/kg po × 4 days): -41.4%
